{"source": "patent US20140227357A1", "about": "“FILL FORMULATIONS AND CAPSULES AND METHOD OF USE TO AVOID MIGRATION OF FILL INTO OR THROUGH THE SHELL” (CAPSUGEL BELGIUM NV, priority 2011, published 2014)", "assay": "Technical batch stability study, 2-butanol and 2-pentanone assay by gas chromatography", "type": "physicochemical", "conditions": "in Formulation 4, sealed LICAPS", "data": [{"smiles": "CCCC(C)=O", "note": "[Formulation 2-pentanone, 2-pentanone]", "values": [{"measurement": "assay, % label claim", "setting": "6 months at 25° C./60% RH in PET/Alu/PE bags", "result": 100.3, "unit": "%"}, {"measurement": "assay, % label claim", "setting": "6 months at 40° C./75% RH in PET/Alu/PE bags", "result": 99.8, "unit": "%"}]}]}
